# Data reported in paper PMC10249021 (Journal of the American Chemical Society, 2020).
# Test: Thermal stability of oxytocin and analogues at 50 °C by LCMS analysis
# Format: physicochemical
# Conditions: thermal degradation in water at 50 °C; read-out LCMS analysis
structure (smiles),measurement,value
CC[C@H](C)[C@@H]1NC(=O)[C@H](Cc2ccc(O)cc2)NC(=O)[C@@H](N)CSSC[C@@H](C(=O)N2CCC[C@H]2C(=O)N[C@@H](CC(C)C)C(=O)NCC(N)=O)NC(=O)[C@H](CC(N)=O)NC(=O)[C@H](CCC(N)=O)NC1=O [oxytocin],half-life (thermal stability),93.6 h
